Data from PubChem BioAssay AID1845196 (Molecular Pharmacology Branch, DTP, NCI, 2023).

Tested on: 292921-168-R tumor spheroid viability
Test: Anticancer human tumor 292921-168-R patient-derived pancreatic carcinoma cell line growth inhibition
Details: spheroids with HUVEC and MSC; for IC50: curve of first compound; for viability, T/C: stronger effect = lower value
Text: Multicellular complex tumor spheroid response to DNA repair inhibitors in combination with DNA-damaging drugs
This study explores the anticancer activities of DNA-damaging drugs and inhibitors of DNA damage repair, both as single agents and in combinations. Complex tumor spheroids comprised of malignant cells, endothelial cells and mesenchymal stem cells served as an in vitro model for human solid tumors. This model system incorporates physiologically relevant features and patient-derived or established malignant cell lines with clinically relevant genetic alterations from many tumor types. Twenty-six patient-derived or established malignant cell lines were evaluated representing sarcoma, melanoma, small cell lung cancer (SCLC), non-small cell lung cancer (NSCLC), as well as bladder, ovarian and pancreatic cancers. The concentration ranges selected for each drug and investigational agent were based upon clinically achievable concentrations if the clinical Cmax of the agent was known.
Compounds. The drugs and compounds olaparib (NSC753686), talazoparib (NSC767125), berzosertib (NSC777718), elimusertib (NSC800525), nedisertib (NSC802822), VX-984 (NSC792969), AZD-1390 (NSC803789), temozolomide (NSC362856), topotecan (NSC609699), trabectedin (NSC813783), staurosporine (NSC755774), and gemcitabine (NSC613327) were obtained from the National Cancer Institute (NCI) Developmental Therapeutics Program Chemical Repository. The FDA-approved anticancer drug set is available from the Developmental Therapeutics Program at https://dtp.cancer.gov/organization/dscb/obtaining/available_plates.htm. […] The stock solutions were prepared in dimethyl sulfoxide (DMSO, Sigma-Aldrich, St. Louis, MO, cat. D2650) at 400-fold the tested concentration and stored at -70 degrees C. Prior to their use, the stock solutions were diluted in fresh medium and the final DMSO concentration in the assay was 0.25% (v/v). All drugs and investigational agents were tested over a range starting from a high concentration at or near the clinical Cmax and decreasing in half-log increments. If the clinical Cmax for an agent had not been determined, the highest concentration tested was 10 microM.
Cell Lines. The patient-derived cancer cell (PDC) lines: 156681-154-R-J1-PDC, 283228-195-R-J1-PDC, 287954-098-R-J1-PDC, 292921-168-R-J2-PDC, 349418-098-R-PDC, 425362-245-T-J1-PDC, 556581-035-R-J1-PDC, and BL0293-F563-PDC were received from the NCI Patient-Derived Models Repository (PDMR, https://pdmr.cancer.gov). The established cell lines HS-SY-2 (RRID:CVCL_8719), MPNST, and SYO-1 (RRID:CVCL_7146) were obtained from the Sloan Kettering Institute. The alveolar soft parts sarcoma cell line ASPS-1 (RRID:CVCL_S738) was established at the NCI and grown from internal seed stocks. The following established cell lines were purchased from the American Type Culture Collection (ATCC, Manassas, VA): G-401 (ATCC, cat. CRL-1441, RRID:CVCL_0270), SW982 (ATCC, cat. HTB-93, RRID:CVCL_1734), VA-ES-BJ (ATCC, cat. CRL-2138, RRID:CVCL_1785), NCI-H719 (ATCC, cat. CRL-5837, RRID:CVCL_1582), NCI-H196 (ATCC, cat. CRL-5823, RRID:CVCL_1509), NCI-H841 (ATCC, cat. CRL-5845, RRID:CVCL_1595), NCI-H1618 (ATCC, cat. CRL-5879, RRID:CVCL_1480), NCI-H1876 (ATCC, cat. CRL-5902, RRID:CVCL_1503), DMS 114 (ATCC, cat. CRL-2066; RRID:CVCL_1174), NCI-H211 (ATCC, cat. CRL-5824; RRID:CVCL_1529), and SW 1271 (ATCC, cat. CRL-2177, RRID:CVCL_1716). The small cell lung cancer cell line COR-L88 was purchased from Sigma-Aldrich (cat. 92031917-1VL, RRID:CVCL_1141). The non-small cell lung cancer cell lines NCI-H226 (RRID:CVCL_1544) and NCI-H322M (RRID:CVCL_1557) were established at the NCI and grown from internal seed stocks. Pooled donor human umbilical vein endothelial cells (HUVEC, Lonza, cat. CC-2519) and human mesenchymal stem cells (hMSC, Lonza, cat. PT-2501) were purchased from Lonza (Walkersville, MD).
Cell Culture. All cells were maintained in an incubator at 37 degrees C and 5% CO2 with 95% humidity. […]
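Further: spheroids exposed to compounds for 7 days.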

In the case of O=C(c1cc(Cc2n[nH]c(=O)c3ccccc23)ccc1F)N1CCN(C(=O)C2CC2)CC1 + Cn1nnc2c(C(N)=O)ncn2c1=O, the IC50 (second compound 1 µM) is reported as 12.9 µM, the IC50 (second compound 3.16 µM) is reported as 17.7 µM and the IC50 (second compound 10 µM) is reported as 8.8 µM. The IC50 (second compound 31.6 µM) was 4.05 µM, the IC50 (second compound 100 µM) was 0.573 µM and the viability, T/C (second compound 1 µM, first compound 0.0949 µM) was 89.2%. It also gave a viability, T/C (second compound 1 µM, first compound 0.3 µM) of 93.1%, a viability, T/C (second compound 1 µM, first compound 0.949 µM) of 87% and a viability, T/C (second compound 1 µM, first compound 3 µM) of 86.1%. It also gave a viability, T/C (second compound 1 µM, first compound 9.49 µM) of 55.6%, a viability, T/C (second compound 1 µM, first compound 30 µM) of 34.2% and a viability, T/C (second compound 3.16 µM, first compound 0.0949 µM) of 100%. For the same molecule, the viability, T/C (second compound 3.16 µM, first compound 0.3 µM) was 101%, the viability, T/C (second compound 3.16 µM, first compound 0.949 µM) was 94% and the viability, T/C (second compound 3.16 µM, first compound 3 µM) was 93.6%. It also gave a viability, T/C (second compound 3.16 µM, first compound 9.49 µM) of 63.4%, a viability, T/C (second compound 3.16 µM, first compound 30 µM) of 38.5% and a viability, T/C (second compound 10 µM, first compound 0.0949 µM) of 94.7%. The viability, T/C (second compound 10 µM, first compound 0.3 µM) was 92.4%, the viability, T/C (second compound 10 µM, first compound 0.949 µM) was 96.5% and the viability, T/C (second compound 10 µM, first compound 3 µM) was 82.2%. The viability, T/C (second compound 10 µM, first compound 9.49 µM) was 48%, the viability, T/C (second compound 10 µM, first compound 30 µM) was 28.3% and the viability, T/C (second compound 31.6 µM, first compound 0.0949 µM) was 88%. The viability, T/C (second compound 31.6 µM, first compound 0.3 µM) was 86.6%, the viability, T/C (second compound 31.6 µM, first compound 0.949 µM) was 76% and the viability, T/C (second compound 31.6 µM, first compound 3 µM) was 56.8%. The viability, T/C (second compound 31.6 µM, first compound 9.49 µM) was 32.2%, the viability, T/C (second compound 31.6 µM, first compound 30 µM) was 21.4% and the viability, T/C (second compound 100 µM, first compound 0.0949 µM) was 74.6%. For the same molecule, the viability, T/C (second compound 100 µM, first compound 0.3 µM) was 58.2%, the viability, T/C (second compound 100 µM, first compound 0.949 µM) was 44% and the viability, T/C (second compound 100 µM, first compound 3 µM) was 29%. It also gave a viability, T/C (second compound 100 µM, first compound 9.49 µM) of 19.1% and a viability, T/C (second compound 100 µM, first compound 30 µM) of 17.2%.
